According to patent US7531543B2, “Phenylpiperazine cycloalkanol derivatives and methods of their use” (Wyeth, priority 2003, dated 2009):
Counter-ions that a name gives are not always drawn.

Target: T1, human hNET (Homo sapiens, UniProt P23975)
T1 construct: expressed in transfected cells; host or cells: MDCK-Net6 (MDCK cells stably transfected with hNET)
Test: Norepinephrine (NE) uptake assay in MDCK-Net6 cells
Type: cell-based
Settings: [3H]NE uptake, MDCK-Net6 cells stably transfected with hNET; for EC50: test range 1 to 10,000 nM
Description: MDCK-Net6 cells, stably transfected with human hNET (Pacholczyk, T., R. D. Blakely, and S. G. Amara, Nature, 1991, 350(6316): p. 350-4) were cultured in growth medium containing high glucose DMEM (Gibco, Cat. No. 11995), 10% FBS (dialyzed, heat-inactivated, US Bio-Technologies, Lot FBD1129HI) and 500 µg/ml G418 (Gibco, Cat. No. 10131). Cells were plated at 300,000/T75 flask and cells were split twice weekly. The JAR cell line (human placental choriocarcinoma) was purchased from ATCC (Cat. No. HTB-144). The cells were cultured in growth medium containing RPMI 1640 (Gibco, Cat. No. 72400), 10% FBS (Irvine, Cat. No. 3000), 1% sodium pyruvate (Gibco, Cat. No. 1136) and 0.25% glucose. Cells were plated at 250,000 cells/T75 flask and split twice weekly. For all assays, cells were plated in Wallac 96-well sterile plates (PerkinElmer, Cat. No. 3983498).
Norepinephrine (NE) Uptake Assay
On day 1, cells were plated at 3,000 cells/well in growth medium and maintained in a cell incubator (37° C., 5% CO2). On day 2, growth medium was replaced with 200 μl of assay buffer (25 mM HEPES; 120 mM NaCl; 5 mM KCl; 2.5 mM CaCl2; 1.2 mM MgSO4; 2 mg/ml glucose (pH 7.4, 37° C.)) containing 0.2 mg/ml ascorbic acid and 10 μM pargyline. Plates containing cells with 200 μl of assay buffer were equilibrated for 10 minutes at 37° C. prior to addition of compounds. A stock solution of desipramine was prepared in DMSO (10 mM) and delivered to triplicate wells containing cells for a final test concentration of 1 μM. Data from these wells were used to define non-specific NE uptake (minimum NE uptake). Test compounds were prepared in DMSO (10 mM) and diluted in assay buffer according to test range (1 to 10,000 nM). Twenty-five microliters of assay buffer (maximum NE uptake) or test compound were added directly to triplicate wells containing cells in 200 μl of assay buffer. The cells in assay buffer with test compounds were incubated for 20 minutes at 37° C. To initiate the NE uptake, [^3H]NE diluted in assay buffer (120 nM final assay concentration) was delivered in 25 μl aliquots to each well and the plates were incubated for 5 minutes (37° C.). The reaction was terminated by decanting the supernatant from the plate. The plates containing cells were washed twice with 200 μl assay buffer (37° C.) to remove free radioligand. The plates were then inverted, left to dry for 2 minutes, then reinverted and air-dried for an additional 10 minutes. The cells were lysed in 25 μl of 0.25 N NaOH solution (4° C.), placed on a shake table and vigorously shaken for 5 minutes. After cell lysis, 75 μl of scintillation cocktail was added to each well and the plates were sealed with film tape. The plates were returned to the shake table and vigorously shaken for a minimum of 10 minutes to ensure adequate partitioning of organic and aqueous solutions. The plates were counted in a Wallac Microbeta counter (PerkinElmer) to collect the raw cpm data.
For each experiment, a data stream of cpm values collected from the Wallac Microbeta counter was downloaded to a Microsoft Excel statistical application program. Calculations of EC50 values were made using the transformed-both-sides logistic dose response program written by Wyeth Biometrics Department. The statistical program uses mean cpm values from wells representing maximum binding or uptake (assay buffer) and mean cpm values from wells representing minimum binding or uptake ((1 μM desipramine (hNET) or 1 μM paroxetine (hSERT)). Estimation of the EC50 value was completed on a log scale and the line was fit between the maximum and minimum binding or uptake values. All graphic data representation was generated by normalizing each data point to a mean percent based on the maximum and minimum binding or uptake values. The EC50 values reported from multiple experiments were calculated by pooling the raw data from each experiment and analyzing the pooled data as one experiment.

T1 sequence (P23975 whole entry): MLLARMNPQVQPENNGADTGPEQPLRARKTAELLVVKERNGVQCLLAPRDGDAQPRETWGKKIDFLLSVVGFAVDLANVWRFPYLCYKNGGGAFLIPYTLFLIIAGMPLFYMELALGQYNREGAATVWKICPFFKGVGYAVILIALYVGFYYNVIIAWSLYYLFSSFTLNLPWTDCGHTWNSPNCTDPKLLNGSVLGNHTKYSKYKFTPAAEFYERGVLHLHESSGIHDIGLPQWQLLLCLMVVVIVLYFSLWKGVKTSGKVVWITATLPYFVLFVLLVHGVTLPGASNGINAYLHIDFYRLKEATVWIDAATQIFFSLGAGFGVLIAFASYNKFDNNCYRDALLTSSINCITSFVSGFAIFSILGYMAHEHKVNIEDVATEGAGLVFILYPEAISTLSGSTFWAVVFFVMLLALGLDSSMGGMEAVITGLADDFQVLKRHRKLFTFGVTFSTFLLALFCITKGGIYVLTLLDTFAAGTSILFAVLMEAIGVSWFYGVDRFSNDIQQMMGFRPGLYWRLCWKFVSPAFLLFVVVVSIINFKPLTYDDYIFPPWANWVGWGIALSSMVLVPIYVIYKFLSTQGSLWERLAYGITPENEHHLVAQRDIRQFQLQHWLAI

| Structure (SMILES) | inhibition at 1 µM (1 μM test compound) | EC50 | % Inhibition @ 1 μM (hNET) (1 μM test compound) |
| --- | --- | --- | --- |
| OC1(C(CN2CCNCC2)c2cccc(Cl)c2)CCCC1 (stereo not drawn) [Example 10, 1-[1-(3-chlorophenyl)-2-piperazin-1-ylethyl]cyclopentanol dihydrochloride] | 63% |  |  |
| CN1CCN(CC(c2ccccc2F)C2(O)CCC2)CC1 (stereo not drawn) [Example 31, 1-[1-(2-fluorophenyl)-2-(4-methylpiperazin-1-yl)ethyl]cyclobutanol dihydrochloride] | -6% |  |  |
| OC1(C(CN2CCNCC2)c2ccc(Br)cc2)CCC1 (stereo not drawn) [Example 12, 1-[1-(4-bromophenyl)-2-piperazin-1-ylethyl]cyclobutanol dihydrochloride] | 55% |  |  |
| OC1(C(CN2CCNCC2)c2ccccc2F)CCCCC1 (stereo not drawn) [Example 25, 1-[1-(2-fluorophenyl)-2-piperazin-1-ylethyl]cyclohexanol dihydrochloride] | 31% |  |  |
| CN1CCN(CC(c2ccc(Br)cc2)C2(O)CCC2)CC1 (stereo not drawn) [Example 21, 1-[1-(4-bromophenyl)-2-(4-methylpiperazin-1-yl)ethyl]cyclobutanol dihydrochloride] | 36% |  |  |
| COc1ccc(C(CN2CCN(C)CC2)C2(O)CCCCCCC2)cc1Br (stereo not drawn) [Example 41, 1-[1-(3-bromo-4-methoxyphenyl)-2-(4-methylpiperazin-1-yl)ethyl]cyclooctanol dihydrochloride] | 48% |  |  |
| C[C@H]1CN(CC(c2cccc(Cl)c2)C2(O)CCCCC2)CCN1 (stereo partly drawn) [Example 4, 1-{1-(3-chlorophenyl)-2-[(3S)-3-methylpiperazin-1-yl]ethyl}cyclohexanol dihydrochloride] | 95% | 59 nM |  |
| COc1ccc(C(CN2CCNCC2)C2(O)CCCCCCC2)cc1Br (stereo not drawn) [Example 38, 1-[1-(3-bromo-4-methoxyphenyl)-2-piperazin-1-ylethyl]cyclooctanol dihydrochloride] | 42% |  |  |
| OC1(C(CN2CCNCC2)c2cccc(Br)c2)CCCC1 (stereo not drawn) [Example 16, 1-[1-(3-bromophenyl)-2-piperazin-1-ylethyl]cyclopentanol dihydrochloride] | 51% |  |  |
| OC1(C(CN2CCNCC2)c2cccc(F)c2)CCCCC1 (stereo not drawn) [Example 9, 1-[1-(3-fluorophenyl)-2-piperazin-1-ylethyl]cyclohexanol dihydrochloride] | 79% | 720 nM |  |
| OC1(C(CN2CCNCC2)c2cccc(Cl)c2)CCCCCC1 (stereo not drawn) [Example 8, 1-[1-(3-chlorophenyl)-2-piperazin-1-ylethyl]cycloheptanol dihydrochloride] | 81% |  |  |
| CN1CCN(CC(c2cccc(Cl)c2)C2(O)CCCCCCC2)CC1 (stereo not drawn) [Example 39, 1-[1-(3-chlorophenyl)-2-(4-methylpiperazin-1-yl)ethyl]cyclooctanol dihydrochloride] | 42% |  |  |
| OC1(C(CN2CCNCC2)c2ccc(Cl)cc2)CCC1 (stereo not drawn) [Example 18, 1-[1-(4-chlorophenyl)-2-piperazin-1-ylethyl]cyclobutanol dihydrochloride] | 44% |  |  |
| C[C@@H]1CN(CC(c2cccc(Cl)c2)C2(O)CCCCC2)C[C@H](C)N1 (stereo partly drawn) [Example 2, 1-{1-(3-chlorophenyl)-2-[(3R,5S)-3,5-dimethylpiperazin-1-yl]ethyl}cyclohexanol dihydrochloride] | 97% | 150 nM |  |
| Cl.Cl.OC1(C(CN2CCNCC2)c2ccc(Br)cc2)CCC1 (stereo not drawn) [Example 20, 1-[1-(4-bromophenyl)-2-piperazin-1-ylethyl]cyclobutanol dihydrochloride] |  |  | 55% |
| OC1(C(CN2CCNCC2)c2cccc(Br)c2)CCCCC1 (stereo not drawn) [Example 3, 1-[1-(3-bromophenyl)-2-piperazin-1-ylethyl]cyclohexanol dihydrochloride] | 96% | 100 nM |  |

| Structure (SMILES) | inhibition at 1 µM (1 μM test compound) | EC50 | % Inhibition @ 1 μM (hNET) (1 μM test compound) |
| --- | --- | --- | --- |
| COc1ccc(C(CN2CCNCC2)C2(O)CCCC2)cc1Br (stereo not drawn) [Example 13, 1-[1-(3-bromo-4-methoxyphenyl)-2-piperazin-1-ylethyl]cyclopentanol dihydrochloride] | 53% |  |  |
| OC1(C(CN2CCNCC2)c2ccc(F)cc2)CCCCC1 (stereo not drawn) [Example 11, 1-[1-(4-fluorophenyl)-2-piperazin-1-ylethyl]cyclohexanol dihydrochloride] | 60% | 6400 nM |  |
| OC1(C(CN2CCNCC2)c2ccccc2F)CCC1 (stereo not drawn) [Example 28, 1-[1-(2-fluorophenyl)-2-piperazin-1-ylethyl]cyclobutanol dihydrochloride] | 14% |  |  |
| OC1(C(CN2CCNCC2)c2ccc(F)cc2)CCC1 (stereo not drawn) [Example 19, 1-[1-(4-fluorophenyl)-2-piperazin-1-ylethyl]cyclobutanol dihydrochloride] | 43% |  |  |
| OC1(C(CN2CCNCC2)c2ccccc2Br)CCCCC1 (stereo not drawn) [Example 33, 1-[1-(2-bromophenyl)-2-piperazin-1-ylethyl]cyclohexanol dihydrochloride] | 35% |  |  |
| CN1CCN(CC(c2cccc(C(F)(F)F)c2)C2(O)CCC2)CC1 (stereo not drawn) [Example 15, 1-{2-(4-methylpiperazin-1-yl)-1-[3-(trifluoromethyl)phenyl]ethyl}cyclobutanol dihydrochloride] | 51% |  |  |
| OC1([C@H](CN2CCNCC2)c2cccc(Cl)c2)CCCCC1 [Example 34, 1-[(1S)-1-(3-chlorophenyl)-2-piperazin-1-ylethyl]cyclohexanol dihydrochloride] |  | 25 nM |  |
| CN1CCN(CC(c2ccc(Cl)cc2)C2(O)CCC2)CC1 (stereo not drawn) [Example 30, 1-[1-(4-chlorophenyl)-2-(4-methylpiperazin-1-yl)ethyl]cyclobutanol dihydrochloride] | -1% |  |  |
| C[C@@H]1CN(CC(c2cccc(Cl)c2)C2(O)CCCCC2)CCN1 (stereo partly drawn) [Example 5, 1-{1-(3-chlorophenyl)-2-[(3R)-3-methylpiperazin-1-yl]ethyl}cyclohexanol dihydrochloride] | 94% | 110 nM |  |
| CN1CCN(CC(c2ccc(F)cc2)C2(O)CCC2)CC1 (stereo not drawn) [Example 32, 1-[1-(4-fluorophenyl)-2-(4-methylpiperazin-1-yl)ethyl]cyclobutanol dihydrochloride] | -10% |  |  |
| OC1(C(CN2CCNCC2)c2ccc(Cl)c(Cl)c2)CCCCC1 (stereo not drawn) [Example 6, 1-[1-(3,4-dichlorophenyl)-2-piperazin-1-ylethyl]cyclohexanol dihydrochloride] | 87% | 210 nM |  |
| OC1(C(CN2CCNCC2)c2cccc(Cl)c2)CCCCCCC1 (stereo not drawn) [Example 36, 1-[1-(3-chlorophenyl)-2-piperazin-1-ylethyl]cyclooctanol dihydrochloride] | 28% |  |  |
| CN1CCN(CC(c2cccc(F)c2)C2(O)CCC2)CC1 (stereo not drawn) [Example 29, 1-[1-(3-fluorophenyl)-2-(4-methylpiperazin-1-yl)ethyl]cyclobutanol dihydrochloride] | 12% |  |  |
| OC1(C(CN2CCNCC2)c2cccc(F)c2)CCC1 (stereo not drawn) [Example 22, 1-[1-(3-fluorophenyl)-2-piperazin-1-ylethyl]cyclobutanol dihydrochloride] | 34% |  |  |
| OC1(C(CN2CCNCC2)c2ccc(Cl)cc2)CCCCC1 (stereo not drawn) [Example 26, 1-[1-(4-chlorophenyl)-2-piperazin-1-ylethyl]cyclohexanol dihydrochloride] | 29% |  |  |
| OC1(C(CN2CCNCC2)c2cccc(Br)c2)CCC1 (stereo not drawn) [Example 27, 1-[1-(3-bromophenyl)-2-piperazin-1-ylethyl]cyclobutanol dihydrochloride] | 22% |  |  |
